The record followed here is US20060148714A1, “Therapeutic peptide-based constructs” (priority 1999, published 2006).

≈ marks a conversion by molar mass, not a printed value. Marks after values point to notes of the source that are not given here. Where a SMILES comes first, the peptide text is derived from it. Where no end group is shown, it is not given here. [ ]: non-standard residue; d: D form. The star is where a group is joined. Benzoyl(4-Ph) = O=C(c1ccc(-c2ccccc2)cc1)*; Benzoyl(2-Ph) = O=C(c1ccccc1-c1ccccc1)*; d1Nal = N[C@H](Cc1cccc2ccccc12)C(=O)O; Aib = CC(C)(N)C(=O)O

In assay [1] the test system is Factor Xa neutralization by ATIII/heparin complexes. Kind of assay: Chromostrate heparin anti-Factor Xa assay (heparin neutralization). The class given is biochemical. The conditions noted are these: absorbance at 405 nm. As to the method:
A Chromostrate™ assay was used to determine the effect of peptide-based constructs, including derivatized constructs, and the effect protamine sulfate (as a positive control) on Factor Xa neutralization by ATIII/heparin complexes. The assay was conducted using a Chromostrate™ heparin anti-Factor Xa assay kit (Organon Teknika Corp., Durham, N.C.). Heparin concentration was varied so that a heparin standard curve was generated. The assay measured the potentiating effect of heparin on anti-Xa activity in vitro. Solution containing heparin is incubated in the presence of ATIII with an excess of Factor Xa, forming an ATIII-Heparin-Xa complex. The remaining Xa catalyzes the release of p-nitroaniline (pNA) from the chromogenic substrate. The release of p-nitroaniline is measured at 405 nm. The absorbance obtained in inversely porportional to the concentration of heparin in the sample.
Reagents for the assay are prepared as follows. Heparin, peptide-based constructs and protamine sulfate stocks are made in saline. Stock solutions are approximately 1 mg/mL=1 μg/μL. Factor Xa reagent and substrate reagent are reconstituted with 2.0 mL purified water. Antithrombin III (ATIII) reagent is reconstituted with 1.0 mL purified water. The assay is performed in 96 well microtiter plates. Assay components are added to the microtiter wells as follows: 12.5 μl of heparin (from 0 to 10 U/mL), 25 μl of construct or protamine sulfate, 12.5 μL of ATIII (0.5 PEU/mL), 25 μL of bovine Factor Xa (14 nKat/mL), 25 μL substrate (3 μmoles/mL). The reaction is allowed to proceed for 20 minutes and then 25 μL of 0.1 M acetic acid is added. The color reaction is quantitated on a microplate reader at 405 nm. Constructs that neutralize heparin show an increase in the absorbance at 405 nm. Protamine is used as a positive control and its activity is designated as 100%. The percent (%) heparin neutralization for each peptide construct is calculated relative to the neutralization by protamine (100%), and shown in Table IV.

For assay [2], the system named is E. coli (J5 and 0111 B4), Staphylococcus aureus and Candida albicans. Nature of the assay: Broth and/or radial diffusion antimicrobial assays. Type of assay: cell-based. An excerpt: Assays useful for testing a variety of biological activities of BPI protein products, including BPI-derived peptides, are described in co-owned U.S. Pat. Nos. 5,733,872; 5,763,567; 5,652,332; and 5,856,438 and corresponding PCT Publication Nos. WO 94/20532 (PCT/US94/02465) and WO 95/19372 (PCT/US94/10427) and U.S. Pat. No. 5,858,974 and corresponding PCT Publications Nos. WO 96/08509 (PCT/US95/09262) and WO 97/04008 (PCT/US96/03845), incorporated herein by reference. These activities include antimicrobial (including antibacterial and antifungal), LPS binding, LPS neutralization and additional assays of heparin binding as well as heparin neutralization.

The subject of another assay is LPS. Kind of assay: RAW cell assay of LPS neutralization. Type of assay: cell-based.
The test system of assay [3] is human umbilical vein endothelial cells (HUVEC). The class given is cell-based. The note with it: 72 h. How it is done: Briefly, human umbilical vein endothelial cells (HUVEC) were cultured in EGM-2 medium (Clonetics Corp., San Diego, Calif.), harvested and plated onto a 96-well culture plate. After 24 hours of quiescence, the cells were co-cultured with various peptide-based constricts in the presence of growth factors for 72 hours to test their activity. Cell proliferation was quantitated by tritiated thymidine incorporation into DNA and was expressed in counts per minute (cpm).
Details of the experimental procedures were as follows: HUVEC cells were cultured in EGM-2 media from Clonetics Corp., a subsidiary of BioWhittaker, Inc., San Diego, Calif. [EGM-2 is Endothelial Cell Basal Medium-2 (EMB-2) supplemented with growth factors (hFGF-B, VEGF, IGF-1, hEGF) ascorbic acid, heparin, GA-1000 and 2% FBS), in T75 flasks until confluent (˜4-7 days). Cells were harvested by trypsinizing the cells using 0.025% trypsin/EDTA for 5 minutes. To stop the reaction, 2-5% FBS was added. The cells were centrifuged and washed 3 times using Hank's Balanced Salt Solution (HBSS) or Dulbecco's Phosphate Buffered Saline D-PBS. The pellet was then resuspended in EBM-2 supplemented with 0.1% FBS and GA-1000 was used. The cells were counted and a cell suspension was prepared at 2×10^5/mL in EBM-2 with 0.1% FBS; cells were dispensed into a 96-well flat bottomed culture plate at 0.1 mL/well (total: ˜20,000 cells/well in 0.1% FBS-EBM-2). Incubation continued at 37° C. in 5% CO2 for 20-24 hours. The next day peptide-based constructs were prepared for testing in a 96 well plate. The supernatant was aspirated from the cell-well, replaced with EBM-2 or the testing reagent at 20 μL/well. Then, 180 μL/well of 1.12% FBS-GFS were added to make a final concentration of 1% FBS-GFS in EBM-2. This aspiration and addition was done well-by-well. ^3H-thymidine (100 μCi/mL) was added at 10 μL/well (1 μCi/well, final). Incubation continued at 37° C., 5% CO2 for 72 hours. To harvest the plate, the supernatant was aspirated off from the cell-well and then 75 μL-100 μL/well of 0.025% trypsin-EDTA was added. After incubation for 8-10 minutes at room temperature in the hood, the cells were checked and 100 μL/well of 2-5% FBS-PBS was added to stop the reaction. The plate was then harvested, dried and counted using an Inotech cell harvester (Inotech Biosystems, INB-384, Sample Processing and Filter Counting System, Lansing, Mich.).

Regarding “k-(aminoisobutyric acid)-f-r-(naph-a)-q-a-k-(naph-a) ([dK][Aib][dF][dR]A[dQ][dA][dK]A; not fully specified (residues 5, 9)) [XMP.778]”, in assay [1], the “Assay A: percent heparin neutralization relative to protamine (100%)” value stood at 54% and the “Assay B: percent heparin neutralization relative to protamine (100%)” value worked out at 49%. For the same compound, in assay [2], the antimicrobial activity result is listed as “highest antimicrobial activities”.

`CC[C@@H](C)[C@@H](NC(=O)[C@@H](CO)NC(=O)CNC(=O)[C@@H](CCCCN)NC(=O)[C@@H](Cc1cccc2ccccc12)NC(=O)[C@@H](CCCCN)NC(=O)[C@@H](C)NC(=O)[C@@H](CCC(N)=O)NC(=O)[C@@H](Cc1cccc2ccccc12)NC(=O)[C@@H](CCCNC(=N)N)NC(=O)[C@@H](Cc1ccccc1)NC(=O)[C@@H](CC(C)C)NC(=O)[C@H](N)CCCCN)C(N)=O` [XMP.625, k-l-f-r-(naph-a)-q-a-k-(naph-a)-k-g-s-i] (H-[dK][dL][dF][dR][d1Nal][dQ][dA][dK][d1Nal][dK]G[dS][dI]-NH2): in assay [1], the “Assay A: percent heparin neutralization relative to protamine (100%)” value was found to be 79% and the “Assay B: percent heparin neutralization relative to protamine (100%)” value is 125%. Further, the LPS neutralization activity result with LPS is recorded as “showed activity”.

On to “k-l-f-k-(naph-a)-q-a-k-(naph-a) ([dK][dL][dF][dK][dNal][dQ][dA][dK][dNal]; not fully specified; printed as k-l-f-k-(naph-a)-q-a-k-(naph-a)) [XMP.776]”, for which, in assay [1], the “Assay A: percent heparin neutralization relative to protamine (100%)” value amounted to 74% and the “Assay B: percent heparin neutralization relative to protamine (100%)” value stood at 75%. The antimicrobial activity result in assay [2] is “highest antimicrobial activities”.

Turning to “k-a-f-r-(naph-a)-q-a-k-(naph-a) ([dK][dA][dF][dR][dNal][dQ][dA][dK][dNal]; not fully specified; printed as k-a-f-r-(naph-a)-q-a-k-(naph-a)) [XMP.760]”, in assay [1], the “Assay A: percent heparin neutralization relative to protamine (100%)” value is 53% and the “Assay B: percent heparin neutralization relative to protamine (100%)” value is on record as 44%. Moreover, in assay [2], the antimicrobial activity result is recorded as “highest antimicrobial activities”.

Turning to “4-biphenylcarbonyl-k-l-f-k-(biphenyl-a)-q-a-k [XMP.769]”, in assay [1], the “Assay A: percent heparin neutralization relative to protamine (100%)” value is given as 64% and the “Assay B: percent heparin neutralization relative to protamine (100%)” value turned out to be 46%.

Turning to “k-a-f-k-(naph-a)-q-a-k-(naph-a)-k-G ([dK][dA][dF][dK][dNal][dQ][dA][dK][dNal][dK]G; not fully specified; printed as k-a-f-k-(naph-a)-q-a-k-(naph-a)-k-G) [XMP.764]”, in assay [1], the “Assay A: percent heparin neutralization relative to protamine (100%)” value was determined as 75% and the “Assay B: percent heparin neutralization relative to protamine (100%)” value is given as 60%. In addition, the antimicrobial activity entry in assay [2] was “highest antimicrobial activities”.

Consider `CC(C)C[C@@H](NC(=O)[C@@H](CCCCN)NC(=O)c1ccccc1-c1ccccc1)C(=O)N[C@H](Cc1ccccc1)C(=O)N[C@H](CCCNC(=N)N)C(=O)N[C@H](Cc1cccc2ccccc12)C(=O)N[C@H](CCC(N)=O)C(=O)N[C@H](C)C(=O)N[C@H](CCCCN)C(N)=O` [XMP.661, 2-biphenylcarbonyl-k-l-f-r-(naph-a)-q-a-k] ({Benzoyl(2-Ph)}-[dK][dL][dF][dR][d1Nal][dQ][dA][dK]-NH2), for which, in assay [1], the “Assay A: percent heparin neutralization relative to protamine (100%)” value came out at 30% and the “Assay B: percent heparin neutralization relative to protamine (100%)” value was 9%.

Consider “k-l-f-k-(biphenyl-a)-q-a-k-(biphenyl-a)-k-G [XMP.728]”, for which, in assay [1], the “Assay A: percent heparin neutralization relative to protamine (100%)” value was found to be 106% and the “Assay B: percent heparin neutralization relative to protamine (100%)” value is reported as 87%.

For the compound “1-naphthylacetyl-k-l-f-r-(naph-a)-q-a-k ({1‑naphthylacetyl}-[dK][dL][dF][dR][dNal][dQ][dA][dK]; not fully specified; printed as 1-naphthylacetyl-k-l-f-r-(naph-a)-q-a-k) [XMP.671]”, in assay [1], the “Assay A: percent heparin neutralization relative to protamine (100%)” value was 32% and the “Assay B: percent heparin neutralization relative to protamine (100%)” value was 15%.

Take “4-biphenylcarbonyl-k-l-f-r-(naph-a)-q-a-k ({Benzoyl(4-Ph)}-[dK][dL][dF][dR][dNal][dQ][dA][dK]; not fully specified; printed as 4-biphenylcarbonyl-k-l-f-r-(naph-a)-q-a-k) [XMP.664]”: in assay [1], the “Assay A: percent heparin neutralization relative to protamine (100%)” value amounted to 50% and the “Assay B: percent heparin neutralization relative to protamine (100%)” value amounted to 16%. Moreover, in assay [2], the antimicrobial activity result is recorded as “highest activities”.

As for k-l-f-r-(biphenyl-A)-q-a-k [XMP.685], in assay [1], the “Assay A: percent heparin neutralization relative to protamine (100%)” value came to 3.4% and the “Assay B: percent heparin neutralization relative to protamine (100%)” value amounted to 0.2%.

On to k-l-f-r-(biphenyl-a)-q-a-k [XMP.725], for which, in assay [1], the “Assay A: percent heparin neutralization relative to protamine (100%)” value is on record as 3.8% and the “Assay B: percent heparin neutralization relative to protamine (100%)” value is 1.0%.

Regarding “4-biphenylcarbonyl-k-l-f-k-(naph-a)-q-a-k ({Benzoyl(4-Ph)}-[dK][dL][dF][dK][dNal][dQ][dA][dK]; not fully specified; printed as 4-biphenylcarbonyl-k-l-f-k-(naph-a)-q-a-k) [XMP.767]”, in assay [1], the “Assay A: percent heparin neutralization relative to protamine (100%)” value turned out to be 63%* and the “Assay B: percent heparin neutralization relative to protamine (100%)” value was 58%. The antimicrobial activity entry in assay [2] was “highest activities”.

With `CC[C@@H](C)[C@@H](NC(=O)[C@@H](CCCCN)NC(=O)[C@H](NC(=O)CNC(=O)[C@@H](CCCCN)NC(=O)[C@@H](Cc1cccc2ccccc12)NC(=O)[C@@H](CCCCN)NC(=O)[C@@H](C)NC(=O)[C@@H](CCC(N)=O)NC(=O)[C@@H](Cc1cccc2ccccc12)NC(=O)[C@@H](CCCNC(=N)N)NC(=O)[C@@H](Cc1ccccc1)NC(=O)[C@@H](CC(C)C)NC(=O)[C@H](N)CCCCN)[C@H](C)CC)C(N)=O` [XMP.656, k-l-f-r-(naph-a)-q-a-k-(naph-a)-k-g-i-k-i] (H-[dK][dL][dF][dR][d1Nal][dQ][dA][dK][d1Nal][dK]G[dI][dK][dI]-NH2; N-terminus assumed), the IC50 (commonly the concentration at which inhibition is half-maximal) in assay [3] came to 2.6 ± 0.8 µg/mL (≈ 1.43 µM). Moreover, in assay [1], the “Assay A: percent heparin neutralization relative to protamine (100%)” value is listed as 74% and the “Assay B: percent heparin neutralization relative to protamine (100%)” value is listed as 65%. For the same compound, the antimicrobial activity result in assay [2] was “highest antimicrobial activities”.

For “4-biphenylcarbonyl-k-l-f-r-(biphenyl-a)-q-a-k [XMP.768]”, in assay [1], the “Assay A: percent heparin neutralization relative to protamine (100%)” value was 34% and the “Assay B: percent heparin neutralization relative to protamine (100%)” value turned out to be 10%.
